Data from PubChem BioAssay (NCI).
Values joined by “and” are separate entries in the source; they are usually repeats but may differ in a detail not shown here. Equal values may be shown once.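 Where inhibition never reached the appropriate level, the endpoint shown equals the highest concentration tested. Otherwise, values were interpolated linearly from a five-concentration, 48-hour dose response in 96-well plates. GI50 is the concentration that inhibits growth by half. The concentration for full growth arrest is given as TGI.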

Key:
Assay in all cases: NCI tumour cell line growth inhibition, 48 h
DMS 273 small cell lung = test system: DMS 273 small cell lung
HOP-18 NSCLC = test system: HOP-18 NSCLC
KM20L2 colon = test system: KM20L2 colon
RXF-631 renal = test system: RXF-631 renal
P388/ADR leukemia = test system: P388/ADR leukemia
SN12K1 renal = test system: SN12K1 renal
P388 leukemia = test system: P388 leukemia

O=P(Nc1cccc(Cl)c1)(Oc1ccccc1)N(CCCl)CCCl (stereo unspecified)
TGI (DMS 273 small cell lung): 27.3 µM | TGI (HOP-18 NSCLC): 47.2 µM | TGI (KM20L2 colon): 26.7 µM

NC(CS)C(=O)NCCNc1ccc(NCCNC(=O)C(N)CS)c2c1C(=O)c1c(O)ccc(O)c1C2=O (stereo unspecified)
GI50 (HOP-18 NSCLC): 0.0307 µM | TGI (HOP-18 NSCLC): 3.9 µM and 0.484 µM | GI50 (KM20L2 colon): 0.195 µM | TGI (KM20L2 colon): 1.49 µM and 1.37 µM

C[C@]12CCC(=O)C=C1CC[C@@H]1C2CC[C@@]2(C)C1CC[C@@H]2OC(=O)C12OC1CCC2=O (stereo partly specified)
TGI (DMS 273 small cell lung): 31.1 µM | TGI (HOP-18 NSCLC): 31.7 µM | TGI (KM20L2 colon): 34.3 µM

COC(=O)CC1NC(=O)C1C(C)(OC)OC (stereo unspecified)
TGI (RXF-631 renal): > 100 µM | TGI (DMS 273 small cell lung): > 100 µM | TGI (KM20L2 colon): > 100 µM

CCOC(=O)C1=C(O)c2ccc(OC)cc2C(=O)C1=O
TGI (DMS 273 small cell lung): > 100 µM | TGI (HOP-18 NSCLC): 66.5 µM | TGI (KM20L2 colon): > 100 µM

NNC(=S)NN/C=C(\C=Nc1ccccc1)[N+](=O)[O-]
TGI (RXF-631 renal): > 100 µM | TGI (KM20L2 colon): > 100 µM

CN(C)CCNC(=O)c1cccc2[nH]c(-c3ccc(Cl)cc3)nc12
TGI (P388/ADR leukemia): 18.4 µM | TGI (SN12K1 renal): 14.8 µM | TGI (DMS 273 small cell lung): 14.3 µM | TGI (HOP-18 NSCLC): 61.1 µM | TGI (P388 leukemia): 14.5 µM | TGI (KM20L2 colon): 18.6 µM

COc1cc(CC2C(=O)OCC2[C@@H](OC(C)=O)c2ccc3c(c2)OCO3)c(Br)c(OC)c1OC (stereo partly specified)
TGI (DMS 273 small cell lung): > 100 µM | TGI (HOP-18 NSCLC): > 100 µM | TGI (KM20L2 colon): > 100 µM

COc1ccc(OC)c(-c2cc(=O)c3cc4c(cc3[nH]2)OCO4)c1
TGI (DMS 273 small cell lung): 20.9 µM | TGI (HOP-18 NSCLC): > 100 µM | TGI (KM20L2 colon): 23.7 µM

O=C1NC2OC(CO)C(O)C(O)C2O1 (stereo unspecified)
TGI (DMS 273 small cell lung): > 100 µM | TGI (HOP-18 NSCLC): > 100 µM | TGI (KM20L2 colon): > 100 µM

CCCCc1c2c(nc3c1CCCC3=O)CCCC2
TGI (DMS 273 small cell lung): > 100 µM | TGI (KM20L2 colon): > 100 µM

O=C1C(=Cc2ccc([N+](=O)[O-])o2)C(=O)N(CCc2ccccc2)S(=O)(=O)N1CCc1ccccc1
TGI (DMS 273 small cell lung): > 100 µM | TGI (HOP-18 NSCLC): > 100 µM | TGI (KM20L2 colon): > 100 µM

COCC1N=C(c2cc(OC)c(OC)c(OC)c2-c2cc3c(cc2[C@@H](C)O)OCO3)O[C@H]1c1ccccc1 (stereo partly specified)
TGI (P388/ADR leukemia): > 100 µM | TGI (SN12K1 renal): > 100 µM | TGI (DMS 273 small cell lung): > 100 µM | TGI (HOP-18 NSCLC): > 100 µM | TGI (P388 leukemia): > 100 µM | TGI (KM20L2 colon): > 100 µM

COc1ccc(/C=C(\C2=NC(=O)CS2)c2nc3ccccc3[nH]2)cc1
TGI (DMS 273 small cell lung): > 100 µM | TGI (KM20L2 colon): > 100 µM

COc1cc(CC(=O)c2cc3c(cc2-c2ccccc2)OCO3)cc(OC)c1OC
TGI (DMS 273 small cell lung): > 100 µM | TGI (HOP-18 NSCLC): > 100 µM | TGI (KM20L2 colon): > 100 µM

CC(=O)Nc1ccc(C(=O)n2[nH]c(C)c(/C=C3\C(=O)C=Cc4ccccc43)c2=O)cc1
TGI (DMS 273 small cell lung): > 100 µM | TGI (HOP-18 NSCLC): > 100 µM

Cc1cc(=O)[nH]c(NNC(C#N)c2ccc(N(C)C)cc2)n1 (stereo unspecified)
TGI (DMS 273 small cell lung): > 100 µM | TGI (HOP-18 NSCLC): > 100 µM | TGI (KM20L2 colon): > 100 µM

Brc1ccc(C[N+]23CN4CN(CN(C4)C2)C3)cc1
TGI (DMS 273 small cell lung): 52.9 µM | TGI (KM20L2 colon): > 100 µM
